The test system of assay [1] is osteoclast formation from PBMC. Briefly: in vitro osteoclast formation assay (RANKL/M-CSF, MTS/TRAP). It is filed as cell-based. The conditions noted are these: for IC50: Osteoclast, read-out: IC50 (osteoclast formation inhibition); for suppression of osteoclast formation under the test conditions (in words): Table 1 experiments. The method, then: Each of the kavalactones isolated in Example 1 was studied in an in vitro osteoclast formation assay. The protocol used (essentially that described in T. Yoneda et al., Endocrinology, 129(2):683-689 (1991) and H. Zhou et al., J Biol. Chem., 272, 14926 (2001)) is as follows:
(A) Osteoclast Formation Culture
1) Prepare assay wells (n=4) for each dilution of a test compound in a 384-plate. Each well contains 25 μl of 2× conc. of the compound in 10% FBS-media/0.5% DMSO.
2) Suspend PBMC in 10% FBS-media supplemented with 40 ng/ml of RANKL and 20 ng/ml of human M-CSF at 1.5 M cells/ml.
3) Vortex cell suspension and filtrate through mesh filter to remove cell aggregates.
4) Inoculate 25 μl of cell suspension to each well.
5) Centrifuge the assay plate at 1500 rpm (˜700 g) for 1 min.
6) Start osteoclast formation culture in a 5% CO2-incubator.
7) After 48 h of the culture, replenish 10 μl of 10% FBS-media supplemented with 120 ng/ml of RANKL and 60 ng/ml of M-CSF. Continue the culture until multiple osteoclasts are visible in control wells (up to 4˜5 days).
1) Add 6 μl of MTS reagent to each well and further incubate 1˜2 hrs.
2) Measure absorbance at 490 nm.
3) Discard MTS/culture media and fix cells in 60% acetone/0.38 M citrate buffer, pH 5.4 for 30 sec. Rinse cells with MQ once and air-dried.
4) Incubate each well in 25 μl of 5 mM p-nitrophenyl phosphate/tartrate/acetic acid solution for 2˜3 hrs (divert buffers from acid phosphate, leukocyte kit from Sigma #386-A).
5) Measure absorbance at 405 nm.
6) Discard p-nitrophenyl phosphate solution, rinse wells with MQ and stain cells with the acid phosphate, leukocyte kit.
7) Count multinucleate (>3) TRAP#-positive cell number under microscope. # Tartarate Resistant Acid Phosphatase

For assay [2], the system named is synthesis of PGE2 in human platelets. The conditions noted are these: applied five minutes before AA; cited from earlier work.
Assay [3] deals with synthesis of TXA2 in human platelets. Conditions: applied five minutes before AA; cited from earlier work.
For assay [4], the system named is ATP release in human platelets. Conditions: applied five minutes before AA; cited from earlier work.
The test system of assay [5] is AA-stimulated aggregation in human platelets. Conditions: applied five minutes before AA; cited from earlier work.
[6] abbreviates: protocol of Example 2, PBMC with RANKL and M-CSF.

Regarding `COC1=CC(=O)O[C@@H](/C=C/c2ccc3c(c2)OCO3)C1` [methysticin], the “relative osteoclast formation inhibitory activity among the six kavalactones” value in assay [1] is recorded as “relatively higher osteoclast formation inhibitory activity”. Further, the half-maximal inhibitory concentration (IC50) in assay [1] (setting [6]) turned out to be 13 µM. For the same compound, the inhibition of osteoclasts entry in assay [1] (at 15 μM) is reported as “almost complete inhibition”.
Taken in the same sequence, the figures for `COC1=CC(=O)O[C@@H](CCc2ccccc2)C1` [dihydrokawain] were “relatively higher osteoclast formation inhibitory activity”, 10 µM and “almost complete inhibition”.
On to `COc1ccc(/C=C/c2cc(OC)cc(=O)o2)cc1` [yangonin], for which, in assay [1], the “relative osteoclast formation inhibitory activity among the six kavalactones” value was “relatively higher osteoclast formation inhibitory activity”. For the same compound, the 50% inhibitory concentration (IC50) in assay [1] (setting [6]) was found to be 8 µM. In addition, the inhibition of osteoclasts entry in assay [1] (at 10 μM) is on record as “almost complete inhibition”.
Consider `C=CC[C@@H]1/C=C(\C)C[C@H](C)C[C@H](OC)[C@H]2O[C@@](O)(C(=O)C(=O)N3CCCC[C@H]3C(=O)O[C@H](/C(C)=C/[C@@H]3CC[C@@H](O)[C@H](OC)C3)[C@H](C)[C@@H](O)CC1=O)[C@H](C)C[C@@H]2OC` [FK506, reference compound], for which, in assay [1] (setting [6]), the IC50 is greater than 25 µg/mL.
Still for that read-out and setting: the same measure for `COC1=CC(=O)O[C@@H](CCc2ccc3c(c2)OCO3)C1` [dihydromethysticin]: 13 µM; for `COc1cc(/C=C/c2ccccc2)oc(=O)c1` [desmethoxyyangonin]: 32 µM.
As to `CC/C(=C(\c1ccccc1)c1ccc(OCCN(C)C)cc1)c1ccccc1` [tamoxifen, reference compound], the “suppression of osteoclast formation under the test conditions (in words)” value (from here on “suppression of osteoclast formation”) in assay [1] was “showed consistent activity”.
For “IL-4: endogeneous osteoclast formation inhibitor, control compound”, in assay [1], the “suppression of osteoclast formation” value is given as “showed consistent activity”. The “IC50 (osteoclast formation inhibition)” value in assay [1] (setting [6]) is less than 0.001 µg/mL.
Turning to `COC1=CC(=O)O[C@@H](/C=C/c2ccccc2)C1` [kawain], in assay [1] (setting [6]), the IC50 worked out at 28 µM.
The same measure, in the same setting: the same measure for `Cc1ccc(-c2cc(C(F)(F)F)nn2-c2ccc(S(N)(=O)=O)cc2)cc1` [celecoxib, reference compound]: greater than 100 µM.
In the case of `COC1=CC(=O)O[C@@H](/C=C/c2ccccc2)C1` [(+)-kawain], the concentration for half-maximal inhibition (IC50) is 86 µM in assay [2], 71 µM in assay [3], 115 µM in assay [4] and 78 µM in assay [5].
On to `CC(=O)Oc1ccccc1C(=O)O` [aspirin, reference compound], for which the IC50 in assay [1] (setting [6]) is greater than 100 µM. Further, the “suppression of osteoclast formation” value in assay [1] is “do not suppress osteoclast formation”. In assay [1] (at 25 μM), the inhibition of osteoclasts entry is recorded as “no inhibition”.

Source of the values: patent US20030229137A1, “Methods of inhibiting osteoclast activity” (priority 2001, published 2003).
